Measured values from US9414589B2, “N-cyclylamides as nematicides” (SYNGENTA PARTICIPATIONS AG, priority 2012, dated 2016).

How the values were obtained:
[1] = system: Meloidogyne spp. (Root-knot nematode); assay: Meloidogyne spp. contact activity, preventive, pouch test (cucumber); format: in vivo; settings: cucumber seed in pouch, test solutions at 200 ppm, galls per root system after twelve days; cis vs trans isomers
Protocol: (§1) Meloidogyne spp. (Root-knot nematode) contact activity, preventive. Pouch test. Filter papers (9 cm×4.5 cm) with a small pocket were placed into plastic pouches (12 cm×6 cm). One cucumber cv. Toshka seed was placed in the centre of the filter paper pocket of all the pouches needed for a test. The cucumber seeds in the pouches were treated with test solutions at 200 ppm by pipetting the solution directly over the cucumber seed in the filter paper pocket in the pouch. Prior to application, the compound solution was prepared at twice the concentration required and the egg suspension is prepared with FORL nutrient solution with 3000 eggs/0.5 ml. After applying all the treatments, 3000 eggs (in 0.5 ml of FORL nutrient solution) were pipetted into the pouches. The pouches were incubated in a moist chamber for twelve days and watered regularly to maintain good filter paper moisture essential for the growing cucumber root system. After this period, the filter paper containing the germinated cucumber seedling was removed from the plastic pouch to assess the number of galls caused by Meloidogyne spp. per root system. […] Meloidogyne spp. (Root-knot nematode) contact activity, preventive, drench test. Cucumber cv. Toshka seeds were sown directly into pots filled with a sandy substrate. Six days later pots were each treated with 5 ml of a WP10 suspension of the test compound at 20 ppm. Hereafter pots were inoculated with 3000 eggs of M. incognita. The trial was harvested fourteen days after trial application and inoculation. Root galling was assessed according to Zeck's gall index (Zeck, 1971).

[2] = system: Meloidogyne spp. (Root-knot nematode); assay: Meloidogyne spp. contact activity, preventive, drench test (cucumber in pots); format: in vivo, M. incognita; settings: cis vs trans isomers
Protocol: as §1, with “Filter” for “Meloidogyne spp. (Root-knot nematode) contact activity, preventive. Pouch test. Filter”

SMILES: O=C(N[C@@H]1CCC1c1ccc(Cl)cc1Cl)c1ccccc1C(F)(F)F (some centres unmarked) [57.009]
- Nem 1 (Meloidogyne spp. contact activity, preventive, pouch test; % galling) [1]: 100%
- melting point: 126 to 128 °C

SMILES: O=C(NC1CCC1c1ccc(Cl)cc1F)c1c(F)cccc1F (centres unmarked) [57.014]
- Nem 2 (Meloidogyne spp. contact activity, preventive, drench test; % galling) [2]: 100%
- Nem 1 (Meloidogyne spp. contact activity, preventive, pouch test; % galling) [1]: 93%

SMILES: O=C(NC1CCC1c1ccc(Cl)cc1Cl)c1ncccn1 (centres unmarked) [57.012]
- Nem 2 (Meloidogyne spp. contact activity, preventive, drench test; % galling) [2]: 83%
- Nem 1 (Meloidogyne spp. contact activity, preventive, pouch test; % galling) [1]: 98%

SMILES: O=C(N[C@H]1CCC1c1ccc(Cl)cc1Cl)c1ccccc1C(F)(F)F (stereo partly drawn) [57.009trans]
- Nem 2 (Meloidogyne spp. contact activity, preventive, drench test; % galling) [2]: 48%
- Nem 1 (Meloidogyne spp. contact activity, preventive, pouch test; % galling) [1]: 68%
- melting point: 147 to 148 °C

SMILES: O=C(NC1CCC1c1ccc(Cl)cc1Cl)c1cccnc1C(F)(F)F (centres unmarked) [57.011]
- Nem 2 (Meloidogyne spp. contact activity, preventive, drench test; % galling) [2]: 100%
- Nem 1 (Meloidogyne spp. contact activity, preventive, pouch test; % galling) [1]: 100%
